Reference: patent publication US6919348B2, “Therapeutic 1,2,3,6-tetrahydropyrimidine-2-one compositions and methods therewith” (priority 2002, dated 2005)
Where two headings read alike, the source gives them in different places. Each block holds one compound with its values, some of them ahead of it.

Experiments:
[1] = tested on: anorectal area of subject with inflamed hemorrhoids; assay: Example 2: anorectal administration in inflamed hemorrhoids; type: in vivo, human; settings: icilin 20 mg/ml in propylene glycol admixed with saline laxative, 2 ml emulsion instilled into rectum
Method: A subject with inflamed hemorrhoids self-administered a commercial suppository, shaped as a 1.5-inch bullet, containing 25 mg of hydrocortisone. The suppository was coated with 5 mg of icilin and 5 mg of WS-23, a menthol analog. Cooling sensations were felt within 5 minutes in the anorectal area extending to the scrotum. Relief of discomfort and itch in the anorectal area lasted for longer than 3 hours. In a similar experiment, icilin, dissolved 20 mg/ml in propylene glycol was admixed with a isotonic sodium chloride solution laxative (containing monobasic sodium phosphate and dibasic sodium phosphate salts), and 2 ml of the emulsion was instilled into the rectum. Again, cooling sensations with relief of itch and discomfort were obtained for 2 hours.

Solubility in solvents = type: physicochemical
Method: (§1) Icilin is a lemon yellow crystalline powder with a molecular weight of 311 Daltons and a melting point of 229 to 231° C. […] Thus, icilin would be considered as a lipophilic, hydrophobic compound that is not easily miscible with aqueous systems. Analogs of icilin, for example, with acetyoxy, ethyl, fluoro, or trifluoromethyl substitutions, retain similar chemical and physical properties and are included within the scope of this invention.
Menthol, by contrast, is a white crystal with a molecular weight of 156 Daltons and a melting point of 41 to 43° C., a temperature slightly above body temperature. […] Some analogs of menthol, e.g. (+)-neomenthol are colorless liquids at room temperature.

[2] = tested on: shaking behavior in the rat; settings: cited from earlier work
abrasion on finger = assay: Example 3: application to abrasion wound on finger; type: in vivo, human; settings: applied directly to abrasion; icilin 0.8 mg
Method: A subject with an abrasion on their finger (caused by friction) of about 1 square centimeter received 0.8 mg of icilin applied directly to the wound with a swab stick.

rats = settings: cited from earlier work
[3] = tested on: mouth, throat and upper alimentary tract; assay: Example 7: chewing gum; type: in vivo, human
Method: Two mg of icilin was spread between two wafers of a fruit-flavored chewing gum and chewed for 5 minutes by a subject. […] But after 12 minutes general sensations of coolness were felt in the thoracic internal structures behind the sternum, in the epigastric area. These cooling effects lasted for about 45 minutes. By contrast, the chewing of mentholated gum or mentholated candy, produced after an initial harsh taste, strong cooling of the mouth and throat that lasted only about 10 minutes.
This experiment illustrates important pharmacokinetic differences between icilin and menthol. The effects of mentholated gum are immediate and localized to the mouth and throat. […] Further protection of the icilin by standard encapsulation technology will allow it to reach the distal portions of the gastrointestinal tract such as the lower ileum and colon where it may exert its pharmacological effects as a cold receptor agonist.

TRP(M8) receptor = TRP(M8) receptor (Rattus norvegicus, UniProt Q8R455); settings: cloned and transfected TRP(M8) receptor; McKemy et al. 2002; cited from earlier work
receptors for cold = settings: cited from earlier work
[4] = Stability at room temperature; type: physicochemical
Method: as §1

[5] = tested on: surfaces of the human body; assay: Irritation upon contact with the surfaces of the human body; type: in vivo
lower eyelid = assay: Example 4: application to lower eyelid; type: in vivo, human; settings: for duration of cooling/refreshing effect: icilin 10 mg/ml solution
Method: A small quantity of a 10 mg/ml solution of icilin dissolved in propylene glycol was applied with a cotton swab stick to the lower eyelid of a subject. […] This effect lasted for about 45 minutes. […] The eyelids smarted from the harsh irritant actions of menthol. The individual blinked and the eyes were momentarily closed with a small degree of lachrymation. But, after about 1 minute, this discomfort dissipated and the cooling sensations of menthol were felt on the eyelid. The sensations were refreshing and lasted for about 15 minutes and accompanied by a minty odor.
By contrast, menthol cannot be used in eye drops because of its irritant actions.

[6] = tested on: nasal cavity of subject with hay fever; assay: Examples 5 and 6: nasal administration in subject with hay fever; type: in vivo, human; settings: for effect on nasal discharge, urge to sneeze, itchy eyelids: inhaled via the nose, hay fever subject
Method: A subject, suffering from hay fever (in this case, seasonal allergy to grass pollen) stopped taking antihistamines for 24 hours and inhaled via the nose 0.5 mg or 2 mg (on 2 separate occasions) of icilin in powder form.
Icilin, dissolved in propylene glycol, was added to a commercial preparation of an anti-allergy nasal spray containing fluticasone to attain a concentration of about 10 mg icilin/ml solution.

skin or mucous membranes = assay: Duration of cooling effect after application to skin or mucous membranes; type: in vivo, human; settings: applied to the skin or mucous membranes, regardless of dose
From the text: The physico-chemical differences between icilin and menthol confer unique advantages to icilin for manipulating sensory nerve discharges in certain defined clinical situations, as described hereinafter. The first advantage is the site of delivery: menthol cannot be delivered to the eyelids and its environs, the nasal membranes, or the mucous membranes of the anogenital region at high concentrations because it is pungent, stings and irritates. Icilin, on the other hand, can be administered to these sites because it is non-irritating. A second major advantage of icilin is its duration of action. Icilin's actions can be localized at its site of application for a prolonged period because of its lipophilic characteristics and because it can be administered as a powder or dispersed (either in solid form or solubilized) as an emulsion. By contrast, menthol is volatile and rapidly re-distributes and metabolizes in the body so its duration of action is relatively short. For example, icilin applied to nasal membranes can produce refreshing sensations for up to 3 hours.
In practicing the present invention, the topical administration of icilin relieves itching, especially when given in combination with a menthol analog. […]

TRP(M8) receptor, sequence (Q8R455 whole entry): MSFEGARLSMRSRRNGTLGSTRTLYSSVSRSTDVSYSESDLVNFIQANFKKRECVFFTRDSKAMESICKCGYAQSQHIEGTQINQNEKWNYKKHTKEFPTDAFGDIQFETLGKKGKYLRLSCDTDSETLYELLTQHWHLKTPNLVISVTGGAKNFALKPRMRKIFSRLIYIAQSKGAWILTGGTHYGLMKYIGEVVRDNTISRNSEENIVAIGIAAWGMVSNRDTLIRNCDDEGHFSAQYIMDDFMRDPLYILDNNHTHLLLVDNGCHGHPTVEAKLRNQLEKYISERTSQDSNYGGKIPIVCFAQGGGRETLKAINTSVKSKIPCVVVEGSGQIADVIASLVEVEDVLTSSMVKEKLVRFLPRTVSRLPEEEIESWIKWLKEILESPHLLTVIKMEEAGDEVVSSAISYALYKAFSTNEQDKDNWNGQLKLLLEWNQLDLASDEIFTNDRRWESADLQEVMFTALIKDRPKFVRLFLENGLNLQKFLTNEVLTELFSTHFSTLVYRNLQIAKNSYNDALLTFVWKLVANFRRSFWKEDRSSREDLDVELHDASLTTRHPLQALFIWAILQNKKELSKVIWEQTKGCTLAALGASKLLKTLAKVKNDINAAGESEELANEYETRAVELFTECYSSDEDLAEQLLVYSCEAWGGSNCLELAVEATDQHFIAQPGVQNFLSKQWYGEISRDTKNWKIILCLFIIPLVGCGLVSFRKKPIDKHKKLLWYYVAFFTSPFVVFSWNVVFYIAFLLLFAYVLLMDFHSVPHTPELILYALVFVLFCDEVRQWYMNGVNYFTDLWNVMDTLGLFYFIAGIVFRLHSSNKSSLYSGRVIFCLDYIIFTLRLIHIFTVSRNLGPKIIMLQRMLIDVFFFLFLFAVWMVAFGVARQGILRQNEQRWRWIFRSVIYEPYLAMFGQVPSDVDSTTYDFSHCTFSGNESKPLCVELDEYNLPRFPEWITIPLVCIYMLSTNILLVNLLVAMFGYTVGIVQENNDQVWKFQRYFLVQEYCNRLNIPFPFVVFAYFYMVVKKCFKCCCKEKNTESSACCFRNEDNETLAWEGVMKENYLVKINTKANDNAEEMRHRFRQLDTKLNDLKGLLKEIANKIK

SMILES: O=C1NC(c2cccc([N+](=O)[O-])c2)=CCN1c1ccccc1O [icilin, 1-[2-hydroxy]-4-[3-nitrophenyl]-1,2,3,6-tetrahydropyridimine-2-one]
- duration of cooling sensations with relief of itch and discomfort [1]: 2 h
- solubility in ethanol and acetone (Solubility in solvents): slightly soluble
- solubility in water (Solubility in solvents): virtually insoluble
- solubility in organic solvents (Solubility in solvents; dimethylsulfoxide, nitromethane, dimethylacetamide and propanediols): readily soluble
- potency relative to menthol on shaking behavior ([2]; rat, molar basis): 400 times
- behavioral syndrome elicited ([2]; rats and monkeys, accompanied by hyperthermia, hyperactivity and ptosis): wet dog shake behavior
- effect on pain and coldness at wound site (abrasion on finger): pain was lessened
- toxicity relative to menthol, by oral median lethal dose (rats): less toxic than menthol
- coolness in the mouth or throat ([3]; 2 mg in chewing gum): No sensations of coolness
- onset of general sensations of coolness ([3]; 2 mg in chewing gum chewed 5 minutes, behind the sternum, epigastric area): 12 min
- duration of cooling effects ([3]; 2 mg in chewing gum, thoracic/epigastric area): about 45 minutes
- potency relative to menthol in eliciting ion channel current changes (TRP(M8) receptor): about 200 times
- sensation elicited (receptors for cold; 0.1 mg applied to the dorsum of the tongue): prickling sensations of cold
- sensation elicited (receptors for cold; ingestion of 6 mg, on one occasion out of three): sensations of coolness on the cheeks and on the inner surfaces of the arms and legs
- stability [4]: stable at room temperature
- irritation upon contact with body surfaces ([5]; powder): non-irritating
- irritation of the eyelid (lower eyelid): without acute irritation
- onset of prickling sensations of cold (lower eyelid; 10 mg/ml in propylene glycol): ≤ 10 min
- duration of cooling/refreshing effect (lower eyelid; menthol crystals): about 45 minutes
- duration of sense of free and unobstructed airflow / cold sensations ([6]; 0.5 mg or 2 mg powder inhaled via the nose): about 3 hours
- duration of refreshing sensations ([6]; applied to nasal membranes): up to 3 hours
- effect on nasal discharge, urge to sneeze, itchy eyelids [6]: curtailed and terminated

- solubility in ethanol (Solubility in solvents): soluble
- solubility in water (Solubility in solvents): slightly soluble
- time until discomfort dissipated (lower eyelid; menthol crystals): about 1 minute
SMILES: CC1CCC(C(C)C)C(O)C1 (stereo not drawn) [menthol, reference compound]
- effect on pain and coldness at wound site (abrasion on finger): did not elicit sensations of coldness or pain reduction
- duration of cooling sensations (skin or mucous membranes): 15 to 30 min
- irritation ([5]; high concentrations, eyes): irritating to the eyes
- irritation of the eyelid (lower eyelid): sharp discomfort
- duration of cooling/refreshing effect (lower eyelid; menthol crystals): about 15 minutes
- duration of cooling effect ([6]; 0.8 mg crystals inhaled): 25 to 30 min
- irritation on nasal inhalation ([6]; inhalation of crystals): initial burning sensation
- effect on nasal discharge, urge to sneeze, itchy eyelids [6]: No overt beneficial effects
